Measured values reported in ChEMBL document CHEMBL5365463, “Identification of a Self-Assembling Small-Molecule Cancer Vaccine Adjuvant with an Improved Toxicity Profile” (J Med Chem, 2023).
Activity calls are given as the source filed them. The rule behind the calls is not given here.

Tests used:
BMDC [1] = test: Induction of IL-6 production in mouse BMDC cells at 100 uM; format: functional, cell-based
RAW264.7 [2] = test: Induction of apoptosis in mouse RAW264.7 cells assessed as live cells at 4 uM by flow cytometry analysis (reference value: 67.2 %); format: functional
RAW264.7 [3] = test: Induction of apoptosis in mouse RAW264.7 cells assessed as live cells at 8 uM by flow cytometry analysis (reference value: 67.2 %); format: functional
RAW264.7 [4] = test: Induction of apoptosis in mouse RAW264.7 cells assessed as live cells at 10 uM by flow cytometry analysis (reference value: 67.2 %); format: functional
RAW264.7 [5] = test: Induction of apoptosis in mouse RAW264.7 cells assessed as live cells at 12 uM by flow cytometry analysis (reference value: 67.2 %); format: functional
RAW264.7 [6] = test: Induction of apoptosis in mouse RAW264.7 cells assessed as live cells at 16 uM by flow cytometry analysis (reference value: 67.2 %); format: functional
RAW264.7 [7] = test: Induction of apoptosis in mouse RAW264.7 cells assessed as apoptotic cells at 4 uM by flow cytometry analysis (reference value: 3.06 %); format: functional
RAW264.7 [8] = test: Induction of apoptosis in mouse RAW264.7 cells assessed as apoptotic cells at 8 uM by flow cytometry analysis (reference value: 3.06 %); format: functional
RAW264.7 [9] = test: Induction of apoptosis in mouse RAW264.7 cells assessed as apoptotic cells at 10 uM by flow cytometry analysis (reference value: 3.06 %); format: functional
RAW264.7 [10] = test: Induction of apoptosis in mouse RAW264.7 cells assessed as apoptotic cells at 12 uM by flow cytometry analysis (reference value: 3.06 %); format: functional
RAW264.7 [11] = test: Induction of apoptosis in mouse RAW264.7 cells assessed as apoptotic cells at 16 uM by flow cytometry analysis (reference value: 3.06 %); format: functional
RAW264.7 [12] = test: Induction of apoptosis in mouse RAW264.7 cells assessed as necrotic cells at 4 uM by flow cytometry analysis (reference value: 28.7 %); format: functional
RAW264.7 [13] = test: Induction of apoptosis in mouse RAW264.7 cells assessed as necrotic cells at 8 uM by flow cytometry analysis (reference value: 28.7 %); format: functional
RAW264.7 [14] = test: Induction of apoptosis in mouse RAW264.7 cells assessed as necrotic cells at 10 uM by flow cytometry analysis (reference value: 28.7 %); format: functional
RAW264.7 [15] = test: Induction of apoptosis in mouse RAW264.7 cells assessed as necrotic cells at 12 uM by flow cytometry analysis (reference value: 28.7 %); format: functional
RAW264.7 [16] = test: Induction of apoptosis in mouse RAW264.7 cells assessed as necrotic cells at 16 uM by flow cytometry analysis (reference value: 28.7 %); format: functional
[17] = Toxicity in BALB/c mouse assessed as effect on body weight loss at 1000 ug measured after 16 hrs in presence of hemagglutinin; conditions: in vivo, dose 1000 µg
[18] = Toxicity in BALB/c mouse assessed as reduction in leukocyte count measured after 16 hrs; conditions: dose 100-1000 µg
[19] = Toxicity in BALB/c mouse assessed as increase in Timp1 expression at 100 to 1000 ug measured after 16 hrs in presence of hemagglutinin; conditions: in vivo, dose 100-1000 µg
[20] = Toxicity in BALB/c mouse assessed as increase in Mx2 expression at 100 to 1000 ug measured after 16 hrs in presence of hemagglutinin; conditions: in vivo, dose 100-1000 µg
BMDC [21] = test: Induction of immune response in TLR7 knockout mouse BMDC cells assessed as increase in IL-6 production at 10 to 100 uM incubated for 24 hrs by ELISA method; format: functional, cell-based; conditions: dose 10-100 µM
BMDC [22] = test: Induction of immune response in TLR7 knockout mouse BMDC cells assessed as increase in TNF-alpha production at 10 to 100 uM incubated for 24 hrs by ELISA method; format: functional, cell-based; conditions: dose 10-100 µM
BMDC [23] = test: Induction of immune response in TLR7 knockout mouse BMDC cells assessed as increase in MIP-1alpha production at 10 to 100 uM incubated for 24 hrs by ELISA method; format: functional, cell-based; conditions: dose 10-100 µM
BMDC [24] = test: Induction of immune response in TLR7 knockout mouse BMDC cells assessed as increase in IFN-beta production at 10 to 100 uM incubated for 24 hrs by ELISA method; format: functional, cell-based; conditions: dose 10-100 µM
BMDC [25] = test: Induction of immune response in TLR7 knockout mouse BMDC cells assessed as increase in CXCL10 production at 10 to 100 uM incubated for 24 hrs by ELISA method; format: functional, cell-based; conditions: dose 10-100 µM
Mus musculus = test: Immuno-adjuvant activity in SV-immunized C57BL/6 mouse assessed as increase in HA-specific IgG1 titer level at 100 ug, sc administered immediately and on day 0, 14 and measured at day 21 by ELISA; format: functional, organism-based; conditions: dose 100.0 µg, time 21.0 day

C[C@H](CCC(=O)NCCCCCNC(=O)CC[C@@H](C)[C@H]1CC[C@H]2[C@@H]3[C@H](O)C[C@@H]4C[C@H](O)CC[C@]4(C)[C@H]3CC[C@]12C)[C@H]1CC[C@H]2[C@@H]3[C@H](O)C[C@H]4C[C@H](O)CC[C@]4(C)[C@H]3CC[C@]12C
Activity (BMDC [1]): Active

C[C@H](CCC(=O)NCCCCCNC(=O)CC[C@@H](C)[C@H]1CC[C@H]2[C@@H]3CC[C@@H]4C[C@H](O)CC[C@]4(C)[C@H]3C[C@H](O)[C@]12C)[C@H]1CC[C@H]2[C@@H]3CC[C@@H]4C[C@H](O)CC[C@]4(C)[C@H]3C[C@H](O)[C@]12C
Activity (RAW264.7 [2]): 67.4% | Activity (RAW264.7 [3]): 66.9% | Activity (RAW264.7 [4]): 33.5% | Activity (RAW264.7 [5]): 27.9% | Activity (RAW264.7 [6]): 11.6% | Activity (RAW264.7 [7]): 2.23% | Activity (RAW264.7 [8]): 2.26% | Activity (RAW264.7 [9]): 0.6% | Activity (RAW264.7 [10]): 0.13% | Activity (RAW264.7 [11]): 0.034% | Activity (RAW264.7 [12]): 28.6% | Activity (RAW264.7 [13]): 29.4% | Activity (RAW264.7 [14]): 63.8% | Activity (RAW264.7 [15]): 69.7% | Activity (RAW264.7 [16]): 85% | Activity [17]: Toxic | Activity [18]: Dose-Dependent Effect | Activity [19]: Toxic | Activity [20]: Toxic | Activity (BMDC [21]): inactive | Activity (BMDC [22]): inactive | Activity (BMDC [23]): inactive | Activity (BMDC [24]): inactive | Activity (BMDC [25]): inactive | Activity (Mus musculus): Active
